Where two headings read alike, the source gives them in different places.
Experiments:
Experiment in all cases: Kinase selectivity, P33-radiolabeled assay
Format in all cases: biochemical
Details in all cases: 10 μM ATP
RAF1 = target: T1, RAF1 (Homo sapiens, UniProt P04049)
T1 construct: purchased Reaction Biology Corp
Outline: (§1)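 Percent residual kinase activity versus DMSO is reported. Conditions: compound at 10 μM, ATP at 10 μM, n = 2.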

TYK2 = target: T2, TYK2 (Homo sapiens, UniProt P29597)
T2 construct: purchased Reaction Biology Corp
T2 sequence (P29597 whole entry): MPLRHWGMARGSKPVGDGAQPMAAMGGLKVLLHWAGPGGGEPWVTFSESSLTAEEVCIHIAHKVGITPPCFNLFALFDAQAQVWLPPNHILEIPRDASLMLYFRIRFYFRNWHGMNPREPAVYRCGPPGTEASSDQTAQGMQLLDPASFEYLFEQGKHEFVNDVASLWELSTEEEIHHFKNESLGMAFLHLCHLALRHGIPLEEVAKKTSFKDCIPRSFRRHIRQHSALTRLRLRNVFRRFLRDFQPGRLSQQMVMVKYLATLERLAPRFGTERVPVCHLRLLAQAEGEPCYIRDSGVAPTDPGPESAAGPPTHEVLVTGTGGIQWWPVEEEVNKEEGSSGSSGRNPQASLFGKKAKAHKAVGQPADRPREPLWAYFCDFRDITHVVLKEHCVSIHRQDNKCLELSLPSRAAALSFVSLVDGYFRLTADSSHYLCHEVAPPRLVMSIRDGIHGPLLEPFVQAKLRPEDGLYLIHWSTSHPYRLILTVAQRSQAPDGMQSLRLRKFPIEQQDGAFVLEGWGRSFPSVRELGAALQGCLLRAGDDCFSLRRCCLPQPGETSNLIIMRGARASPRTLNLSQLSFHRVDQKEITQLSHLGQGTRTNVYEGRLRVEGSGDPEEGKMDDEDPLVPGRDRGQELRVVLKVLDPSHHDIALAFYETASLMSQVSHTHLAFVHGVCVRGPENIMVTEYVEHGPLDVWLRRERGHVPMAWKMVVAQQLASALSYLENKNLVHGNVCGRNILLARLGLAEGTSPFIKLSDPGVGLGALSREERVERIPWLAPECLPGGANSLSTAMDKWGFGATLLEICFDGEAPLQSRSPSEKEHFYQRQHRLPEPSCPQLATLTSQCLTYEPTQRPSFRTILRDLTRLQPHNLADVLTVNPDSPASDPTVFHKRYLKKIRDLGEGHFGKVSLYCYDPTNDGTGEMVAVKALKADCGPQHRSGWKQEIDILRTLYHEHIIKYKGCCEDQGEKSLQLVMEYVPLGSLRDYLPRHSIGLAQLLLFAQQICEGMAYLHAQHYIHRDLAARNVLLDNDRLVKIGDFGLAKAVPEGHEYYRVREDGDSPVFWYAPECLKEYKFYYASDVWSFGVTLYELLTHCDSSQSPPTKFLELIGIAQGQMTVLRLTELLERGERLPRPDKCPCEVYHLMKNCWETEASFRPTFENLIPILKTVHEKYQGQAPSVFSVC
Outline: as §1

STK22D/TSSK1 = target: T3, STK22D/TSSK1 (Homo sapiens, UniProt Q9BXA7)
T3 construct: purchased Reaction Biology Corp
T3 sequence (Q9BXA7 1-367): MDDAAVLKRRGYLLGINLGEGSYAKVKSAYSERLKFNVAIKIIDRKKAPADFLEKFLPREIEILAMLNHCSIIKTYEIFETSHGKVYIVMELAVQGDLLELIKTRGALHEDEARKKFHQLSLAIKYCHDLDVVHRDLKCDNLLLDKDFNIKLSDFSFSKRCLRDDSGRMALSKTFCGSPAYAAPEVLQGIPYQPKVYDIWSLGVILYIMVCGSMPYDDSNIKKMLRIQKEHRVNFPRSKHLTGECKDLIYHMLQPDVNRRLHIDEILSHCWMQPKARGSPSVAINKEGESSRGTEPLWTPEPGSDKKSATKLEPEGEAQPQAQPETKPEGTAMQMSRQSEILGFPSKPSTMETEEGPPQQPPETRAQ
Outline: as §1

CLK3 = target: T4, CLK3 (Homo sapiens, UniProt P49761)
T4 construct: purchased Reaction Biology Corp
T4 sequence (P49761 whole entry): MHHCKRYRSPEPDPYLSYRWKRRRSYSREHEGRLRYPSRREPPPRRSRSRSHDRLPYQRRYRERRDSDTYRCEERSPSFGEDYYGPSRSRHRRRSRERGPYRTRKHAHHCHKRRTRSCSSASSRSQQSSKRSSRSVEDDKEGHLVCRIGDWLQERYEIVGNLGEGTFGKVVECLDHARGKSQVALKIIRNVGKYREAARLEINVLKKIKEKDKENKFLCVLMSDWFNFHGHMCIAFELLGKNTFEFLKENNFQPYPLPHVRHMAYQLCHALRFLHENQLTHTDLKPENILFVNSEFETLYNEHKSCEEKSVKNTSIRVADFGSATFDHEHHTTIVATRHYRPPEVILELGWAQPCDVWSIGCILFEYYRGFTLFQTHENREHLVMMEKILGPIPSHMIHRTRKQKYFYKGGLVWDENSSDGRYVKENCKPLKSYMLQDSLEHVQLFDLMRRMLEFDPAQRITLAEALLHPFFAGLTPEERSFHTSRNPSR
Outline: as §1

MEKK1 = target: T5, MEKK1 (Homo sapiens, UniProt Q13233)
T5 construct: purchased Reaction Biology Corp
T5 sequence (Q13233 whole entry): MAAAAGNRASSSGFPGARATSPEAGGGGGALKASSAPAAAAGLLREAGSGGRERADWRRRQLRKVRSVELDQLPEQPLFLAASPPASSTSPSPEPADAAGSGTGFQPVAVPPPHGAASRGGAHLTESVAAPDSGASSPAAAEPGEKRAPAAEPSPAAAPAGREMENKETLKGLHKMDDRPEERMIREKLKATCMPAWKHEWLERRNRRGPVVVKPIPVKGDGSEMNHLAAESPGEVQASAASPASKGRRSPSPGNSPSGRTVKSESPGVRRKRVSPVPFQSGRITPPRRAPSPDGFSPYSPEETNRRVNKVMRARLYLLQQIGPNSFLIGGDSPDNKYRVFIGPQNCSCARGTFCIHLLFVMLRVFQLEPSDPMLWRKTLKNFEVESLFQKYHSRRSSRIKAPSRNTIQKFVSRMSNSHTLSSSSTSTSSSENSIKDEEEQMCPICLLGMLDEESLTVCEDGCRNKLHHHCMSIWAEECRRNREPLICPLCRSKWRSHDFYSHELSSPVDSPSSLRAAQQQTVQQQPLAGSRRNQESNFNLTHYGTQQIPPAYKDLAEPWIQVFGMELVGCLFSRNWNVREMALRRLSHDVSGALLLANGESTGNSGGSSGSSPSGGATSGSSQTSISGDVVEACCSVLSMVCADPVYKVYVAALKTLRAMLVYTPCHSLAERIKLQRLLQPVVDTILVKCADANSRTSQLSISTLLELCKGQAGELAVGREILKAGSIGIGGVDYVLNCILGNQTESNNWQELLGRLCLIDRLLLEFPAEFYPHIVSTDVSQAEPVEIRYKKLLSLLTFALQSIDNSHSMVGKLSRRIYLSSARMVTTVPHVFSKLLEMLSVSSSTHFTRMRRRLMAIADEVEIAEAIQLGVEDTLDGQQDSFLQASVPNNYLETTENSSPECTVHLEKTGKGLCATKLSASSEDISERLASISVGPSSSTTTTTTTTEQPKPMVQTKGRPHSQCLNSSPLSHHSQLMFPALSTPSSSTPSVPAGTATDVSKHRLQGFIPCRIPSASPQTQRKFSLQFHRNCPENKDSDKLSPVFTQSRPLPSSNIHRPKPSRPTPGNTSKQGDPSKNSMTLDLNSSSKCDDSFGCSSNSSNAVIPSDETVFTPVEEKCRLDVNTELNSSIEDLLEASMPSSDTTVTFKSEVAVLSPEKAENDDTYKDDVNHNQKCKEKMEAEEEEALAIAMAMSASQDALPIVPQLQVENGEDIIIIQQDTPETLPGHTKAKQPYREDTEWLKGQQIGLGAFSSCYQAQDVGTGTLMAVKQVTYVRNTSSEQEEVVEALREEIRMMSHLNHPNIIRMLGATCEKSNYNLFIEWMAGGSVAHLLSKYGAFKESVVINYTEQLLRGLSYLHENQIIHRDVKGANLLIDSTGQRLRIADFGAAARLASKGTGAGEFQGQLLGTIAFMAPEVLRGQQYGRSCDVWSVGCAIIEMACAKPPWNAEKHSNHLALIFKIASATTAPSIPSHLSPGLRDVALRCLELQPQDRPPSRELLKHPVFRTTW
Outline: as §1

AKT2 = target: T6, AKT2 (Homo sapiens, UniProt P31751)
T6 construct: purchased Reaction Biology Corp
Outline: as §1

MLCK/MYLK = target: T7, MLCK/MYLK (Homo sapiens, UniProt Q15746)
T7 construct: purchased Reaction Biology Corp
Outline: as §1

PHKg1 = target: T8, PHKg1 (Homo sapiens, UniProt Q16816)
T8 construct: purchased Reaction Biology Corp
T8 sequence (Q16816 whole entry): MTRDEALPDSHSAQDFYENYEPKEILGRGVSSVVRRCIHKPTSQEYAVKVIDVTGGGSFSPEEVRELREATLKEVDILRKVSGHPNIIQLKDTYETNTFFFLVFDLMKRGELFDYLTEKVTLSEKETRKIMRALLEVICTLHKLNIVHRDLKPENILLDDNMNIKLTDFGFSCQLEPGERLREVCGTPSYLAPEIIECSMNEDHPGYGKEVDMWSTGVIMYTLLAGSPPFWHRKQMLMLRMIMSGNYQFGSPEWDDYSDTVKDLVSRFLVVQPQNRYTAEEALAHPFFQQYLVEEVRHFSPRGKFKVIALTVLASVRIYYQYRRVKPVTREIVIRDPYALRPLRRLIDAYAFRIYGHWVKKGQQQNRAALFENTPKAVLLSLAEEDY
Outline: as §1

DYRK1/DYRK1A = target: T9, DYRK1/DYRK1A (Homo sapiens, UniProt Q13627)
T9 construct: purchased Reaction Biology Corp
Outline: as §1

EPHA5 = target: T10, EPHA5 (Homo sapiens, UniProt P54756)
T10 construct: purchased Reaction Biology Corp
T10 sequence (P54756 25-1037): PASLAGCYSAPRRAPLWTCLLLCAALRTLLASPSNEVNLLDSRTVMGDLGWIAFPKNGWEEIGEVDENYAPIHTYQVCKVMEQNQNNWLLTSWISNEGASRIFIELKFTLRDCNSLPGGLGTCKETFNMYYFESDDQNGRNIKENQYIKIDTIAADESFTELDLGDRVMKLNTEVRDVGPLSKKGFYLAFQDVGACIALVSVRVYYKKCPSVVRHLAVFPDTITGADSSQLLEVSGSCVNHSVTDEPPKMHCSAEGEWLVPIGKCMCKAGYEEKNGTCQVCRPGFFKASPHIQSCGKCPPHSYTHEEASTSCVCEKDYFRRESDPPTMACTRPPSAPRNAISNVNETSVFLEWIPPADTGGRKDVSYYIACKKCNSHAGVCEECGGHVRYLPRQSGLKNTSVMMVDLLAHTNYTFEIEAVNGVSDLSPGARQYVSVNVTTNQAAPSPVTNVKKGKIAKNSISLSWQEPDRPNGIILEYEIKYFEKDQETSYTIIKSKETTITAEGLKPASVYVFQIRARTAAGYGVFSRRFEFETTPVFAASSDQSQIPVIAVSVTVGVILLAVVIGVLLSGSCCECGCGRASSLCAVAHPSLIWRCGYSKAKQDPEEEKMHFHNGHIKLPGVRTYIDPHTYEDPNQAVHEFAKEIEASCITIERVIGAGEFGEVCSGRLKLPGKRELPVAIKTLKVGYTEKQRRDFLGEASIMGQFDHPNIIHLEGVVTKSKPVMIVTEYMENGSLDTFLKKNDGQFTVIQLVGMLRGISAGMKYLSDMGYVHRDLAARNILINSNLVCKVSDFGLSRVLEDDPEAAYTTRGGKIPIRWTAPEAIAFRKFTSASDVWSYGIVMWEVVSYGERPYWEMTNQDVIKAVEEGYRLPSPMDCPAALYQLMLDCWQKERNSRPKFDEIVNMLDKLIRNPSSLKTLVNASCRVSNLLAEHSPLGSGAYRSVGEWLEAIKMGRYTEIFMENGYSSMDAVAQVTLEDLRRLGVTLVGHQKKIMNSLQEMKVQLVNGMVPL
Outline: as §1

BRK = target: T11, BRK (Homo sapiens, UniProt Q13882)
T11 construct: purchased Reaction Biology Corp
T11 sequence (Q13882 whole entry): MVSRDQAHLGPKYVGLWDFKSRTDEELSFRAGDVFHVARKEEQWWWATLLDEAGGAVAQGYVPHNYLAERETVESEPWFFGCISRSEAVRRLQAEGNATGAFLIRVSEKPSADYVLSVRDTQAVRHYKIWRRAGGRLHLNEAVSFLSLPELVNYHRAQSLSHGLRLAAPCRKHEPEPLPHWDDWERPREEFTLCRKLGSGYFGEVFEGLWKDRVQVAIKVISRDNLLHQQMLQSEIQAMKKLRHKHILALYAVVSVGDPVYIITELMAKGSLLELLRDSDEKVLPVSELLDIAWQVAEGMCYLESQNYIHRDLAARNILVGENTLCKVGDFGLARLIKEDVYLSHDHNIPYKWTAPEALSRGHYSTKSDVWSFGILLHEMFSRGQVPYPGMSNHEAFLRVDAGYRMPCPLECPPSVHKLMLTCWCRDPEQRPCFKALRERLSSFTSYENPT
Outline: as §1

EPHA3 = target: T12, EPHA3 (Homo sapiens, UniProt P29320)
T12 construct: purchased Reaction Biology Corp
T12 sequence (P29320 21-983): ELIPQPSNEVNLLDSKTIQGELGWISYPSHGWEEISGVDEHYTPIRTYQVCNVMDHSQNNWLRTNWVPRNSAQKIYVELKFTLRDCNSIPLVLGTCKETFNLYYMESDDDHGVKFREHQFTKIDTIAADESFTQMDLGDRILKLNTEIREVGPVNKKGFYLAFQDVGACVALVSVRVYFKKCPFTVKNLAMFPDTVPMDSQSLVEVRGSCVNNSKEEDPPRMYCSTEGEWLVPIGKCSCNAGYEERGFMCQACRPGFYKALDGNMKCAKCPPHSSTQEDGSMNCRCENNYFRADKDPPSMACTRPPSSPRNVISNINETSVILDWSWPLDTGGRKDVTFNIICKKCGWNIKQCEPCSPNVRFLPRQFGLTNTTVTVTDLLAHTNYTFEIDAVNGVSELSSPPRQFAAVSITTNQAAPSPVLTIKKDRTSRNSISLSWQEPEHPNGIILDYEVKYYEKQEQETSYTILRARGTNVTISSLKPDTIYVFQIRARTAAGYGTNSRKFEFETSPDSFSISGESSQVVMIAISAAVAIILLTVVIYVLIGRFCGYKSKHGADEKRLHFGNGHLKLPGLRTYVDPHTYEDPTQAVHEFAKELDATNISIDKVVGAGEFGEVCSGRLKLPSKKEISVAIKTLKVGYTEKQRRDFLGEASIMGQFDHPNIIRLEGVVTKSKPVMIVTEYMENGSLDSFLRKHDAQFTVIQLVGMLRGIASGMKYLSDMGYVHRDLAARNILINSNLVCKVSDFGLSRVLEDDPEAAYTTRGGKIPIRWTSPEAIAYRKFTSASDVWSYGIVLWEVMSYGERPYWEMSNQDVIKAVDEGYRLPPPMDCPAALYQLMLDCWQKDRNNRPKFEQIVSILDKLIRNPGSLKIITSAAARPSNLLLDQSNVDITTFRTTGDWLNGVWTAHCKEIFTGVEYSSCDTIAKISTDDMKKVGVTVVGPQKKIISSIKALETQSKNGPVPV
Outline: as §1

[1] = read-out: % Enzyme Activity (relative to DMSO controls) AVG
[2] = read-out: % Enzyme Activity (relative to DMSO controls) Data 1
[3] = read-out: % Enzyme Activity (relative to DMSO controls) Data 2

Q: Which remaining activity at 10 µM (RAF1; [1]) does the source give for `CC(C)(C)C(=O)N1N=CC[C@H]1c1ccccc1` [GSK′963] here?
A: The remaining activity at 10 µM was 93.7%.

Q: And the remaining activity at 10 µM (RAF1; [2])?
A: Its remaining activity at 10 µM is 94.8%.

Q: What about the remaining activity at 10 µM (RAF1; [3]) of the same compound?
A: Its remaining activity at 10 µM is 92.7%.

Q: And the remaining activity at 10 µM (TYK2; [1])?
A: The remaining activity at 10 µM was 103%.

Q: What about the remaining activity at 10 µM (TYK2; [2]) of the same compound?
A: Its remaining activity at 10 µM is 104%.

Q: And the remaining activity at 10 µM (TYK2; [3])?
A: The remaining activity at 10 µM was 101%.

Q: What about the remaining activity at 10 µM (STK22D/TSSK1; [1]) of the same compound?
A: The remaining activity at 10 µM was 110%.

Q: And the remaining activity at 10 µM (STK22D/TSSK1; [2])?
A: Its remaining activity at 10 µM is 108%.

Q: What about the remaining activity at 10 µM (STK22D/TSSK1; [3]) of the same compound?
A: The remaining activity at 10 µM was 112%.

Q: And the remaining activity at 10 µM (CLK3; [1])?
A: Its remaining activity at 10 µM is 107%.

Q: And the remaining activity at 10 µM (CLK3; [2])?
A: The remaining activity at 10 µM was 109%.

Q: And the remaining activity at 10 µM (CLK3; [3])?
A: The remaining activity at 10 µM was 105%.

Q: What about the remaining activity at 10 µM (MEKK1; [1]) of the same compound?
A: Its remaining activity at 10 µM is 97.3%.

Q: And the remaining activity at 10 µM (MEKK1; [2])?
A: Its remaining activity at 10 µM is 101%.

Q: What about the remaining activity at 10 µM (MEKK1; [3]) of the same compound?
A: The remaining activity at 10 µM was 94%.

Q: What about the remaining activity at 10 µM (AKT2; [1]) of the same compound?
A: The remaining activity at 10 µM was 92.8%.

Q: What about the remaining activity at 10 µM (AKT2; [2]) of the same compound?
A: Its remaining activity at 10 µM is 91.7%.

Q: And the remaining activity at 10 µM (AKT2; [3])?
A: Its remaining activity at 10 µM is 93.9%.

Q: What about the remaining activity at 10 µM (MLCK/MYLK; [1]) of the same compound?
A: Its remaining activity at 10 µM is 96.1%.

Q: And the remaining activity at 10 µM (MLCK/MYLK; [2])?
A: The remaining activity at 10 µM was 97.1%.

Q: And the remaining activity at 10 µM (MLCK/MYLK; [3])?
A: The remaining activity at 10 µM was 95.2%.

Q: And the remaining activity at 10 µM (PHKg1; [1])?
A: The remaining activity at 10 µM was 102%.

Q: And the remaining activity at 10 µM (PHKg1; [2])?
A: The remaining activity at 10 µM was 103%.

Q: What about the remaining activity at 10 µM (PHKg1; [3]) of the same compound?
A: Its remaining activity at 10 µM is 101%.

Q: And the remaining activity at 10 µM (DYRK1/DYRK1A; [1])?
A: Its remaining activity at 10 µM is 103%.

Q: And the remaining activity at 10 µM (DYRK1/DYRK1A; [2])?
A: The remaining activity at 10 µM was 103%.

Q: And the remaining activity at 10 µM (DYRK1/DYRK1A; [3])?
A: The remaining activity at 10 µM was 103%.

Q: What about the remaining activity at 10 µM (EPHA5; [1]) of the same compound?
A: Its remaining activity at 10 µM is 107%.

Q: What about the remaining activity at 10 µM (EPHA5; [2]) of the same compound?
A: Its remaining activity at 10 µM is 105%.

Q: And the remaining activity at 10 µM (EPHA5; [3])?
A: The remaining activity at 10 µM was 108%.

Q: What about the remaining activity at 10 µM (BRK; [1]) of the same compound?
A: The remaining activity at 10 µM was 93.2%.

Q: And the remaining activity at 10 µM (BRK; [2])?
A: The remaining activity at 10 µM was 96.2%.

Q: And the remaining activity at 10 µM (BRK; [3])?
A: The remaining activity at 10 µM was 90.2%.

Q: And the remaining activity at 10 µM (EPHA3; [1])?
A: Its remaining activity at 10 µM is 91.8%.

Q: What about the remaining activity at 10 µM (EPHA3; [2]) of the same compound?
A: Its remaining activity at 10 µM is 94.4%.

Q: What about the remaining activity at 10 µM (EPHA3; [3]) of the same compound?
A: Its remaining activity at 10 µM is 89.2%.
